The values below come from patent publication EP4813993A1, “COMPOUND, PREPARATION METHOD THEREFOR, AND USE THEREOF” (Sichuan Kelun Pharmaceutical Research Institute Co., Ltd., priority 2023, dated 2025).

Each structure is given as a SMILES string.

The target of the experiment is T1, Nav1.8 channels (Homo sapiens, UniProt Q9Y5Y9).
T1 construct: expressed in transfected cells
As to the kind of experiment: Manual patch-clamp, current of stably overexpressed Nav1.8 channels (resting state voltage program). In kind it is cell-based. The settings on record: for inhibition at 0.01 µM: concentration of 10 nM; for inhibition at 0.01 µM / inhibition at 0.001 µM: read-out: Inhibition rate %; for inhibition at 0.001 µM: concentration of 1 nM. How it is done:
Experimental Example 1: Effects of test substances on current of stably overexpressed Nav1.8 channels monitored via manual patch-clamp technique
Test compounds were dissolved in dimethyl sulfoxide (DMSO).
The extracellular fluid was as follows: 140 mM NaCl, 3.5 mM KCl, 1 mM MgCl2•6H2O, 2 mM CaCl2•2H2O, 10 mM D-Glucose, 10 mM HEPES, 1.25 mM NaH2PO4•2H2O; the pH was adjusted to 7.4 with NaOH. The intracellular fluid was as follows: 50 mM CsCl, 10 mM NaCl, 10 mM HEPES, 60 mM CsF, 20 mM EGTA; the pH was adjusted to 7.2 with CsOH.
2. Experimental materials and instruments
• 1) patch-clamp amplifier: EPC 10 (HEKA) • 2) micromanipulator: MP225 (Sutter Instrument) • 3) inverted microscope: MF53 (Mshot) • 4) micropipette puller: P97 (Sutter Instrument) • 5) capillary glass tube: BF150-86-10 (Sutter Instrument)
3. Experimental procedures
• 1) After the compounds were prepared into solutions with specified concentrations, the solutions were sequentially added to the pipeline of the drug delivery system and labeled. • 2) The cell climbing coverslip was placed in the recording chamber, the appropriate cells were selected under the inverted microscope, and the position of the drug delivery tip was adjusted. • 3) A capillary glass tube was pulled into a suitable recording electrode using the micropipette puller, and then the electrode filled with the intracellular fluid was mounted in the microelectrode holder. The micromanipulator was adjusted under the inverted microscope to allow the recording electrode to contact the cell, and negative pressure was applied to the electrode to form a high-resistance seal. At this time, fast capacitance compensation was performed, and then the application of negative pressure was continued to break the cell membrane, forming a whole-cell recording mode. Finally, slow capacitance compensation was performed, and related parameters were recorded. • 4) After the cell current stabilized, administration was started. Each concentration of the drug was applied for five minutes or until the current stabilized before proceeding to monitor the next concentration. The drug solutions were administered via gravity-fed delivery, flowing through the recording chamber to act on the cells in an ascending order of concentration (from low to high). A peristaltic pump was employed for solution exchange in the recording process.
4 Test voltage program (resting state) and results
After the formation of the whole-cell seal, the cell voltage was clamped at -120 mV, followed by depolarization to 0 mV using a square-wave pulse with a duration of 50 ms to elicit Nav1.8 currents. This procedure was repeated every 20 s to monitor the maximum current induced by the square wave. After the current stabilized, the test compounds were administered. Once the response stabilized, the intensity of the current block was calculated.
For orientation: In patch-clamp work, channel activity is measured electrically.

T1 sequence (Q9Y5Y9 whole entry): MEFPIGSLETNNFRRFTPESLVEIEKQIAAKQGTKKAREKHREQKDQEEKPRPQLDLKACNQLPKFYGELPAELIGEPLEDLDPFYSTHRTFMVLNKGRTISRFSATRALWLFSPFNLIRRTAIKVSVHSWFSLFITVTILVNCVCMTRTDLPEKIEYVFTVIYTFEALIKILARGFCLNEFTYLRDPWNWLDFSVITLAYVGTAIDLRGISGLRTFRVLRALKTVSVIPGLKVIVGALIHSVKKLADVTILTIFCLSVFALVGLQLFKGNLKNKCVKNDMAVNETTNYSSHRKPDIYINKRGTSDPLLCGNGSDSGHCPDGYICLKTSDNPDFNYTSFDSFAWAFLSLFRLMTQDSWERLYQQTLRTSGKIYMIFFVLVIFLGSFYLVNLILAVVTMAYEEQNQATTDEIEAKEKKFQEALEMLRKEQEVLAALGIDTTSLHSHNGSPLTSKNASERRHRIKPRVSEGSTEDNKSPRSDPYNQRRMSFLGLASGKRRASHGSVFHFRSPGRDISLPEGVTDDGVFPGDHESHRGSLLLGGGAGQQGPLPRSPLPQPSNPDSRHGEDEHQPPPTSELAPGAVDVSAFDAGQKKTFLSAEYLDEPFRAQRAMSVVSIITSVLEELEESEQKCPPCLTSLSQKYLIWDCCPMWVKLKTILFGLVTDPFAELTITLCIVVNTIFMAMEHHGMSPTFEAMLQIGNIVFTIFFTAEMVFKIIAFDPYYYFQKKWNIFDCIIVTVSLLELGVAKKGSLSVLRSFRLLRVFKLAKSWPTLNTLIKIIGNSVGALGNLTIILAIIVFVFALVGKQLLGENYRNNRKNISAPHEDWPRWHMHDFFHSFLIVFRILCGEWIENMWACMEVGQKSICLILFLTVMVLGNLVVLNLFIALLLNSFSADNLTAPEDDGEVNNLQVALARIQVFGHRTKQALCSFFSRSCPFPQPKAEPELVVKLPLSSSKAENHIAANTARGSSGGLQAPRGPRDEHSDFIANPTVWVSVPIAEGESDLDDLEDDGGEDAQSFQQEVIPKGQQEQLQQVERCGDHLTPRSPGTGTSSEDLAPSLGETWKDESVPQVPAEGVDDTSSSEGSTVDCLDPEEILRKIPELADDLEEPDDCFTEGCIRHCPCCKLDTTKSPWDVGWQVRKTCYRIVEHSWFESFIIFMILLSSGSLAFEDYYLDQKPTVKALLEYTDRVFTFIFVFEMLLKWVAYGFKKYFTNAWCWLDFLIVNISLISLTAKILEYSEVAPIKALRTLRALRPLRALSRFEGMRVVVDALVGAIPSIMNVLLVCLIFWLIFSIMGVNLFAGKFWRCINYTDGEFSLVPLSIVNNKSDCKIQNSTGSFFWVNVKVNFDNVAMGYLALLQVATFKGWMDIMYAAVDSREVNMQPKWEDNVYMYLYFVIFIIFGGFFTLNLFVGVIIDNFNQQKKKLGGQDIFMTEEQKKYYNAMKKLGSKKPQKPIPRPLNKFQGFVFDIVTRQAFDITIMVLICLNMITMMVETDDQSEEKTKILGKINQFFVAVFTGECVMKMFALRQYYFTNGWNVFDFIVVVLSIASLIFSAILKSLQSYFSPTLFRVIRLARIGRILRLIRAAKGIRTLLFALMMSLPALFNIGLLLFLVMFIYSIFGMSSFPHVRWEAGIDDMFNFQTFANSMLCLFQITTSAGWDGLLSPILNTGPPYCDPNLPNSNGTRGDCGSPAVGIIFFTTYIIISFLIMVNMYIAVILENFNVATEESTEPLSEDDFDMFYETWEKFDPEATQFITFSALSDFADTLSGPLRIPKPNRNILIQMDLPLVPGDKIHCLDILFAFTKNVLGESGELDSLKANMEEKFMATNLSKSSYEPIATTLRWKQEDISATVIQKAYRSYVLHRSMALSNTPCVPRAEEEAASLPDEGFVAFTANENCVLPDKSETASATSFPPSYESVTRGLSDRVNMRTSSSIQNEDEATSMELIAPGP

As for `COc1c([C@@H]2C[C@](C)(C(F)(F)F)S[C@H]2C(=O)Nc2cccc(S(=O)(=O)N(C)C)c2)ccc(F)c1F` [Compound 240-A, (2R,3S,5R)-3-(3,4-difluoro-2-methoxyphenyl)-N-(3-(N,N-dimethylsulfamoyl)phenyl)-5-methyl-5-(trifluoromethyl)tetrahydrothiophene-2-carboxamide], the inhibition – broadly, the drop in the measured response relative to a control, in per cent – at 0.01 µM was 87.4%. As for `CCS(=O)(=O)Nc1cccc(NC(=O)[C@@H]2S[C@@](C)(C(F)(F)F)C[C@H]2c2ccc(F)c(F)c2OC)c1` [a-44-A, (2R,3S,5R)-3-(3,4-difluoro-2-methoxyphenyl)-N-(3-(ethylsulfonamido)phenyl)-5-methyl-5-(trifluoromethyl)tetrahydrothiophene-2-carboxamide], the inhibition at 0.001 µM worked out at 49.9%. As for `COc1c([C@@H]2C[C@](C)(C(F)(F)F)S[C@H]2C(=O)Nc2ccc(=O)n(C)c2)ccc(F)c1F` [Compound 178-A, (2R,3S,5R)-3-(3,4-difluoro-2-methoxyphenyl)-5-methyl-N-(1-methyl-6-oxo-1,6-dihydropyridin-3-yl)-5-(trifluoromethyl)tetrahydrothiophene-2-carboxamide], the inhibition at 0.01 µM stood at 90.2%. `COc1c([C@@H]2C[C@](C)(C(F)(F)F)S[C@H]2C(=O)Nc2ccc3nonc3c2)ccc(F)c1F` [Compound 248-A, (2R,3S,5R)-N-(benzo[c][1,2,5]oxadiazol-5-yl)-3-(3,4-difluoro-2-methoxyphenyl)-5-methyl-5-(trifluoromethyl)tetrahydrothiophene-2-carboxamide]: the inhibition at 0.001 µM is 72.6%. Consider `COc1c([C@@H]2C[C@](C)(C(F)(F)F)S[C@H]2C(=O)Nc2csc(B(O)O)c2)ccc(F)c1F` [Compound 48-A, (4-((2R,3S,5R)-3-(3,4-difluoro-2-methoxyphenyl)-5-methyl-5-(trifluoromethyl)tetrahydrothiophene-2-carboxamido)thiophen-2-yl)boronic acid], for which the inhibition at 0.01 µM came to 91.5%. For the compound `COc1c([C@@H]2C[C@](C)(C(F)(F)F)S[C@H]2C(=O)Nc2ccnc(S(=O)(=O)N=[N+]=[N-])c2)ccc(F)c1F` [a-66-A, 4-((2R,3S,5R)-3-(3,4-difluoro-2-methoxyphenyl)-5-methyl-5-(trifluoromethyl)tetrahydrothiophene-2-carboxamido)pyridine-2-sulfonyl azide], it took 0.26 nM to reach half-maximal inhibition (IC50). `COc1c([C@@H]2C[C@](C)(C(F)(F)F)S[C@H]2C(=O)Nc2ccc(F)c(C/C(C#N)=C(\C)O)c2)ccc(F)c1F` [a-17-A, (2R,3S,5R)-N-(3-((Z)-2-cyano-3-hydroxybut-2-enyl)-4-fluorophenyl)-3-(3,4-difluoro-2-methoxyphenyl)-5-methyl-5-(trifluoromethyl)tetrahydrothiophene-2-carboxamide]: the inhibition at 0.01 µM is 65.5%.

Turning to `[2H]C1(C(=O)Nc2ccnc(O)c2)SC(C)(C(F)(F)F)CC1c1ccc(F)c(F)c1OC` (stereo not drawn) [Compound 222, 3-(3,4-difluoro-2-methoxyphenyl)-N-(2-hydroxypyridin-4-yl)-5-methyl-5-(trifluoromethyl)tetrahydrothiophene-2-d-2-carboxamide], the inhibition at 0.01 µM came to 97%.

Turning to `COc1c(C2CC(C)(C(F)(F)F)SC2C(=O)Nc2ccnc(N)c2)ccc(F)c1F` (stereo not shown) [Compound 175, (4-(3-(3,4-difluoro-2-methoxyphenyl)-5-methyl-5-(trifluoromethyl)tetrahydrothiophene-2-carboxamido)-2-amino)pyridine], the inhibition at 0.001 µM was found to be 87.8%. In the case of `COc1c(C2C(C(=O)Nc3ccnc(C(N)=O)c3)SC(C)(C(F)(F)F)C2C)ccc(F)c1F` (stereo not shown) [Compound 136, 4-(3-(3,4-difluoro-2-methoxyphenyl)-4,5-dimethyl-5-(trifluoromethyl)tetrahydrothiophene-2-carboxamido)picolinamide], the inhibition at 0.001 µM was 61.9%. Consider `COc1c(C2CC(C)(C(F)(F)F)SC2C(=O)Nc2cccc(S(=O)(=O)NC#N)c2)ccc(F)c1F` (stereo not shown) [Compound a-9, N-(3-(N-cyanosulfamoyl)phenyl)-3-(3,4-difluoro-2-methoxyphenyl)-5-methyl-5-(trifluoromethyl)tetrahydrothiophene-2-carboxamide], for which the inhibition at 0.01 µM came to 85.3%. Turning to `COc1c([C@@H]2C[C@](C)(C(F)(F)F)S[C@H]2C(=O)Nc2cccc(N=[N+]=[N-])c2)ccc(F)c1F` [a-29-A, (2R,3S,5R)-N-(3-azidophenyl)-3-(3,4-difluoro-2-methoxyphenyl)-5-methyl-5-(trifluoromethyl)tetrahydrothiophene-2-carboxamide], 0.005 nM corresponded to half-maximal inhibition (IC50). With `COc1c([C@@H]2C[C@](C)(C(F)(F)F)S[C@H]2C(=O)Nc2ccc3c(c2)S(=O)(=O)NCN3)ccc(F)c1F` [a-26-A, (2R,3S,5R)-3-(3,4-difluoro-2-methoxyphenyl)-N-(1,1-dioxide-3,4-dihydro-2H-benzo[e][1,2,4]thiadiazin-7-yl)-5-methyl-5-(trifluoromethyl)tetrahydrothiophene-2-carboxamide], the inhibition at 0.01 µM came to 95.6%.

For the compound `COc1c([C@@H]2C[C@](C)(C(F)(F)F)S[C@H]2C(=O)Nc2ccc3c(c2)S(=O)(=O)NC3=O)ccc(F)c1F` [a-36-A, (2R,3S,5R)-3-(3,4-difluoro-2-methoxyphenyl)-N-(1,1-dioxide-3-oxo-2,3-dihydrobenzo[d]isothiazol-6-yl)-5-methyl-5-(trifluoromethyl)tetrahydrothiophene-2-carboxamide], the inhibition at 0.01 µM turned out to be 83.7%. The same measure, in the same setting: with `[2H][C@@]1(C(=O)Nc2cccc(B(O)O)c2)S[C@@](C)(C(F)(F)F)C[C@H]1c1ccc(F)c(F)c1OC` [Compound 10-A] the figure was 87.5%. In the case of `COc1c([C@@H]2C[C@](C)(C(F)(F)F)S[C@H]2C(=O)Nc2ccc(B3OC(C)(C)C(C)(C)O3)c(F)c2)ccc(F)c1F` [Compound 229-A, (2R,3S,5R)-3-(3,4-difluoro-2-methoxyphenyl)-N-(3-fluoro-4-(4,4,5,5-tetramethyl-1,3,2-dioxaborolan-2-yl)phenyl)-5-methyl-5-(trifluoromethyl)tetrahydrothiophene-2-carboxamide], the inhibition at 0.001 µM is 48.6%. For the compound `COc1c([C@@H]2C[C@](C)(C(F)(F)F)S[C@H]2C(=O)Nc2ccnc(-c3ncon3)c2)ccc(F)c1F` [a-48-A, (2R,3S,5R)-3-(3,4-difluoro-2-methoxy-phenyl)-5-methyl-N-[2-(1,2,4-oxadiazol-3-yl)-4-pyridyl]-5-(trifluoromethyl)tetrahydrothiophene-2-carboxamide], the inhibition at 0.001 µM stood at 71.9%. In the case of `COc1c([C@@H]2C[C@](C)(C(F)(F)F)S[C@H]2C(=O)Nc2ccc3c(c2)B(O)NC3=O)ccc(F)c1F` [Compound a-2, (2R,3S,5R)-3-(3,4-difluoro-2-methoxyphenyl)-N-(1-hydroxy-3-oxo-2,3-dihydro-1H-benzo[c][1,2]azaborol-6-yl)-5-methyl-5-(trifluoromethyl)tetrahydrothiophene-2-carboxamide], the inhibition at 0.001 µM was 83.9%. With `CNS(=O)(=O)c1cccc(NC(=O)[C@@H]2S[C@@](C)(C(F)(F)F)C[C@H]2c2ccc(F)c(F)c2OC)c1` [Compound 241-A, (2R,3S,5R)-3-(3,4-difluoro-2-methoxyphenyl)-5-methyl-N-(3-(N-methylsulfamoyl)phenyl)-5-(trifluoromethyl)tetrahydrothiophene-2-carboxamide], the inhibition at 0.01 µM is 95.4%.

`COc1c(C2CC(C)(C(F)(F)F)SC2C(=O)Nc2csc(B(O)O)c2)ccc(F)c1F` (stereo not shown) [Compound 48, (4-(3-(3,4-difluoro-2-methoxyphenyl)-5-methyl-5-(trifluoromethyl)tetrahydrothiophene-2-carboxamido)thiophen-2-yl)boronic acid]: the inhibition at 0.01 µM was found to be 79.8%.

Take `COc1c([C@@H]2C[C@](C)(C(F)(F)F)S[C@H]2C(=O)Nc2ccc(F)c(N=[N+]=[N-])c2)ccc(F)c1F` [a-31-A, (2R,3S,5R)-N-(3-azido-4-fluorophenyl)-3-(3,4-difluoro-2-methoxyphenyl)-5-methyl-5-(trifluoromethyl)tetrahydrothiophene-2-carboxamide]: the inhibition at 0.001 µM is 81.9%.

Turning to `COc1c([C@@H]2C[C@](C)(C(F)(F)F)S[C@H]2C(=O)Nc2ccnc(C(=O)NO)c2)ccc(F)c1F` [a-87-A, 4-((2R,3S,5R)-3-(3,4-difluoro-2-methoxyphenyl)-5-methyl-5-(trifluoromethyl)tetrahydrothiophene-2-carboxamido)-N-hydroxypicolinamide], the inhibition at 0.001 µM amounted to 47.7%.
